Results as given in EP1353939B1, “TETRAPEPTIDE REGULATING PROSTATE FUNCTIONS AND ITS COMPOSITIONS AND USES” (Sankt-Peterburgskaya Obschestvennaya Organizatsia …, priority 2001, dated 2004).
Read-outs that look alike come from different tables or passages of the source. Marks after values point to notes of the source that are not given here.

Tests used:
[1] = system: chronic bacterial prostatitis
Description: The investigation was performed on 41 white mongrel male rats weighing on average 230 g. Bacterial prostatitis was induced in the rats by transurethral introduction of enterotoxigenic E.coli suspension K-2935 (01: K1: H-). A glycerine-lubricated catheter was inserted into the animals' urethra under a light ether narcosis after treating the external urethra opening with 70 % alcohol. 0.2 ml of bacterial suspension (10^9 colony-forming units per ml) was instilled via catheter with a syringe. Control animals were injected with 0.2 ml of 0.9 % natural saline solution through the catheter. […] The injections were performed daily for 10 days. The control groups included intact animals, animals with untreated chronic prostatitis and those treated with injections of 0.9 % natural saline solution applied by the same plan.
All the rats were euthanasised by decapitation on the 70th day of the experiment. The animals were subjected to complete autopsy. Their testes and epididymes, prostate, seminal vesicles, bulbourethral glands, urinary bladder, kidneys with ureters and other intrinsic organs were examined. For histology the ventral segment of the prostate was fixed in 10 % neutral formalin and - after a standard processing with a series of solvents - embedded in paraffin. 5-7-µm thin tissue sections were stained with haematoxylin-eosin.
The degree of prostatitis manifestation throughout the groups was assessed according to the below 5-point scale: • 1 point - traces of prostatitis (small foci of fibrosis, interstitial lymphocytic and histiocytic infiltration); • 2 points - foci of chronic prostatitis with inflammatory infiltration (basically, interstitial one) occupying less than ¼ of the gland section; • 3 points - prostatitis foci with large inflammatory infiltrates surrounding the ducts, acini and blood vessels, with leukocytic conglomerations in the glandular lumens, embracing ¼ - ½ of the gland section; • 4 points - expressed prostatitis covering ½ - ¾ of the gland section; • 5 points - strongly expressed prostatitis affecting over ¾ of the gland section.
The prostate sites were also used for electron microscopic examination and tests on the content of zinc, which makes a part of compositions with anti-microbial activity.

[2] = system: processes of free radical oxidation; details: 0.1 µg per injection s.c. for 10 days
Description: The animals were subcutaneously administered with 0.1 µg of the tetrapeptide per injection for 10 days. The controls were similarly injected with 0.9 % natural saline solution. The rats were euthanasised on the next day after the last introduction of the tetrapeptide.
Afterwards, samples of the brain and liver tissues and blood serum were prepared and peroxide lipid oxidation (PLO) intensity in them was studied by the content of diene conjugates and Schiff's bases. The activity of glutathione peroxidase and superoxide dismutase was defined as well by the method of suppressing nitroblue tetrasolium oxidation with biological material.

urinary bladder explants = details: 20 ng/ml, third day of cultivation
Description: The experiments were carried out in 45 urinary bladder fragments of 10-11-days old chicken embryos. The nutrient medium for the explant cultivation included 35 % of Eagle's solution, 25 % of foetal calf serum, 35 % of Hanks' solution, 5 % of chicken embryonic extract and was added glucose (0.6 %), insulin (0.5 unit/ml), penicillin (100 unit/ml) and glutamine (2 mM). The urinary bladder fragments were placed in this medium and cultivated in Petri's dishes in a thermostat at 36.7°C for 48 hours. […] Square index (SI) was taken for a biological activity criterion and calculated as a correlation of the total explant square (including the growth zone) to the initial square of a urinary bladder fragment. The SI values were expressed per cent, the control SI value - taken for 100 %.

## lysyl-glutamyl-aspartyl-proline [Lys-Glu-Asp-Pro tetrapeptide]
[1]; 0.1 µg per injection s.c. daily for 10 days
  positive dynamics of inflammatory processes in the prostate: 7 cases out of 11
[1]; 0.1 µg per injection s.c. daily for 10 days, from day 45 after infection, 5-point scale
  Degree of prostatitis in points Per rat in the group: 1.81 ± 0.09 points
[1]; 0.1 µg per injection s.c. daily for 10 days, 5-point scale
  Degree of prostatitis in points Per prostatitis-affected rat: 2.86* points
[1]; after application of the tetrapeptide (Figure 2)
  mean concentration of zinc in the prostate tissue: decreased
[1]; of 11 rats in total, 0.1 µg per injection s.c. daily for 10 days
  Number of rats in the group Prostatitis -affected: 7
[2]; Blood serum
  Diene conjugates: 5.28 ± 0.33 nmol/mL
  Glutathione peroxidase: 2.85 ± 0.06 mmol of GlSH/min/mg of protein
  Schiff's bases: 17.40 ± 1.54 conv. unit/ml
  Superoxide dismutase: 0.826 ± 0.060 conv. unit/mg of protein
[2]; Brain
  Diene conjugates: 46.14 ± 2.91 mnol/ml
  Glutathione peroxidase: 50.7±0.2 mmole of GlSH/min/mg of protein
  Schiff's bases: 237.3 ± 17.8 conv. unit/ml
  Superoxide dismutase: 26.7 ± 3.0 conv. unit/mg of protein
[2]; Liver
  Diene conjugates: 44.76 ± 2.48 nmol/mL
  Glutathione peroxidase: 798.0±29.1 mmol of GlSH/min/mg of protein
  Schiff's bases: 556.5 ±37.6 conv. unit/ml
  Superoxide dismutase: 54.1 ± 7.9 conv. unit/mg of protein
Urinary bladder explants
  increase in the explant SI as compared to the control value: 23%
